According to patent US20240360178A1, “MACROCYCLIC IMMUNOMODULATORS” (Bristol-Myers Squibb Company, priority 2021, published 2024):
Positions of bridges follow the written chain, without caps; N, C: chain ends. Non-standard residues stand in square brackets, D forms with d. Residues, ends and D or L forms follow the SMILES beside them. ξ: configuration not given here. Ala(indol-4-yl) = N[C@@H](Cc1cccc2[nH]ccc12)C(=O)O; Phe(3-CF3) = N[C@@H](Cc1cccc(C(F)(F)F)c1)C(=O)O; Phe(4-COOH) = N[C@@H](Cc1ccc(C(=O)O)cc1)C(=O)O; Bip = N[C@@H](Cc1ccc(-c2ccccc2)cc1)C(=O)O; Phe(3-OMe) = COc1cccc(C[C@H](N)C(=O)O)c1; Phe(3-F) = N[C@@H](Cc1cccc(F)c1)C(=O)O; Ala(cPent) = N[C@@H](CC1CCCC1)C(=O)O; NMeF = CN[C@@H](Cc1ccccc1)C(=O)O; 4Pal = N[C@@H](Cc1ccncc1)C(=O)O; Cha = N[C@@H](CC1CCCCC1)C(=O)O; Cit = NC(=O)NCCC[C@H](N)C(=O)O; ξR = N=C(N)NCCCC(N)C(=O)O; NMeA = CN[C@@H](C)C(=O)O; Dab = NCC[C@H](N)C(=O)O; Dap = NC[C@H](N)C(=O)O; Sar = CNCC(=O)O

The molecules below were run against T1, human PD-1 (Jurkat-PD-1 cells) / PE-labeled human PD-L1-Ig (Homo sapiens, UniProt Q15116) (assay: Jurkat-PD-1 Cell Binding High-Content Screening Assay (CBA); Jurkat hPD1-PDL1 assay). Conditions: Jurkat cell line over-expressing human PD-1; PE-labeled PD-L1-Ig 20 nM final; compound incubated 2 hours at 37° C.; read-out: Jurkat HPD1-PDL1 IC50.
T1 construct: expressed in transfected cells; host or cells: Jurkat cell line over-expressing human PD-1
T1 sequence (Q15116 25-288): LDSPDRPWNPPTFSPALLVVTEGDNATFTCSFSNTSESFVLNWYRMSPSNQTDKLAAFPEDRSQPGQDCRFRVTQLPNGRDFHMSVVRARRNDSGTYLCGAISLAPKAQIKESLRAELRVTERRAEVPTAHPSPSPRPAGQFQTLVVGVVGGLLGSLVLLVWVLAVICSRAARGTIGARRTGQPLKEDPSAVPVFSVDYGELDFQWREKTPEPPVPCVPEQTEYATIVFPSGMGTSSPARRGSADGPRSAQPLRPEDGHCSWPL
How it was run: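 Read-out is high-content imaging of PE fluorescence on PD-1-over-expressing Jurkat cells. Cells are first exposed to compound for 2 hours at 37° C in serum-containing DMEM, after which PE-labeled PD-L1-Ig is added at 20 nM final.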
Work on `CC(C)C[C@@H]1NC(=O)C(CCCNC(=N)N)NC(=O)[C@H](Cc2ccccc2)N(C)C(=O)[C@H](C)N(C)C(=O)[C@H](CCCNC(=N)N)NC(=O)[C@H](Cc2ccc(-c3ccccc3)cc2)NC(=O)[C@H](C(C)C)NC(=O)[C@H](Cc2c[nH]c3ccccc23)NC(=O)[C@H](CC(=O)O)NC(=O)[C@H](Cc2ccc(C(=O)O)cc2)NC(=O)[C@H](Cc2ccccc2)NC(=O)CSC[C@@H](C(=O)NCC(N)=O)NC(=O)[C@H](CO)NC(=O)[C@H](C(C)C)NC1=O` (stereo partly shown) [Example 1222] ({CH2CO}-F[Phe(4-COOH)]DWV[Bip]R[NMeA][NMeF][ξR]LVSCG-NH2; thioether N-14) yielded an IC50 of 60 nM. `CC(C)C[C@@H]1NC(=O)[C@H](CCCNC(=N)N)NC(=O)[C@H](Cc2ccccc2)N(C)C(=O)[C@H](CCN)NC(=O)[C@H](CCCNC(=N)N)NC(=O)[C@H](Cc2ccc(-c3ccccc3)cc2)NC(=O)[C@H](C(C)C)NC(=O)[C@H](Cc2c[nH]c3ccccc23)NC(=O)[C@H](CC(=O)O)NC(=O)[C@H](Cc2ccc(O)cc2)NC(=O)[C@H](Cc2ccccc2)NC(=O)CSC[C@@H](C(=O)NCC(N)=O)NC(=O)[C@H](CO)NC(=O)[C@H](C(C)C)NC1=O` [Example 1255] ({CH2CO}-FYDWV[Bip]R[Dab][NMeF]RLVSCG-NH2; thioether N-14) was tested, and the IC50 was 430 nM. `CC(C)C[C@@H]1NC(=O)[C@H](CCN)NC(=O)[C@H](Cc2ccccc2)N(C)C(=O)[C@H](C)N(C)C(=O)[C@H](CCCNC(N)=O)NC(=O)[C@H](Cc2ccc(-c3ccccc3)cc2)NC(=O)[C@H](C(C)C)NC(=O)[C@H](Cc2cccc(C(F)(F)F)c2)NC(=O)[C@H](CC(=O)O)NC(=O)[C@H](Cc2ccc(O)cc2)NC(=O)[C@H](CC(N)=O)NC(=O)CSC[C@@H](C(=O)N[C@@H](C)C(N)=O)NC(=O)[C@H]([C@@H](C)O)NC(=O)[C@H](C(C)C)NC1=O` [Example 1376] ({CH2CO}-NYD[Phe(3-CF3)]V[Bip][Cit][NMeA][NMeF][Dab]LVTCA-NH2; thioether N-14) showed an IC50 of 70 nM. `CC(C)C[C@@H]1NC(=O)[C@H](Cc2c[nH]c3ccccc23)NC(=O)[C@H](CC(=O)O)NC(=O)[C@H](Cc2ccc(O)cc2)NC(=O)[C@H](Cc2ccccc2)NC(=O)CSC[C@@H](C(=O)NCC(N)=O)NC(=O)[C@H]([C@@H](C)O)NC(=O)[C@H](C(C)C)NC(=O)[C@H](CC(C)C)NC(=O)[C@H](CCN)NC(=O)[C@H]2CCCN2C(=O)[C@H](CN)NC(=O)[C@H](C(C)C)NC(=O)[C@H](Cc2ccc(-c3ccccc3)cc2)NC1=O` [Example 1407] ({CH2CO}-FYDWL[Bip]V[Dap][dP][Dab]LVTCG-NH2; thioether N-14) showed an IC50 of 280 nM. `COc1cccc(C[C@@H]2NC(=O)[C@H](Cc3ccccc3)NC(=O)CSC[C@@H](C(=O)N[C@@H](C)C(N)=O)NC(=O)[C@H](CO)NC(=O)[C@H](C(C)C)NC(=O)[C@H](CC(C)C)NC(=O)[C@H](CC(N)=O)NC(=O)[C@H]3CCCN3C(=O)[C@H](C)N(C)C(=O)[C@H](C(C)C)NC(=O)[C@H](Cc3ccc(-c4ccccc4)cc3)NC(=O)[C@H](CC(C)C)NC(=O)[C@H](Cc3c[nH]c4ccccc34)NC(=O)[C@H](CC(=O)O)NC2=O)c1` [Example 1055] ({CH2CO}-F[Phe(3-OMe)]DWL[Bip]V[NMeA][dP]NLVSCA-NH2; thioether N-14) showed an IC50 of 120 nM. With `CC(C)C[C@@H]1NC(=O)CSC[C@@H](C(=O)NCC(N)=O)NC(=O)[C@H](CO)NC(=O)[C@H](C(C)C)NC(=O)[C@H](CC(C)C)NC(=O)[C@H](CCCNC(=N)N)NC(=O)[C@H](Cc2ccccc2)N(C)C(=O)[C@H](C)N(C)C(=O)[C@H](CCC(=O)O)NC(=O)[C@H](Cc2ccc(-c3ccccc3)cc2)NC(=O)[C@H](C(C)C)NC(=O)[C@H](Cc2c[nH]c3ccccc23)NC(=O)[C@H](CC(=O)O)NC(=O)[C@H](Cc2ccc(O)cc2)NC1=O` [Example 1287] ({CH2CO}-LYDWV[Bip]E[NMeA][NMeF]RLVSCG-NH2; thioether N-14) the IC50 was 130 nM. `CC(C)C[C@@H]1NC(=O)[C@H](CCN)NC(=O)[C@H](Cc2ccccc2)N(C)C(=O)[C@H](C)N(C)C(=O)[C@H](CCCNC(=N)N)NC(=O)[C@H](Cc2ccc(-c3ccccc3)cc2)NC(=O)[C@H](C(C)C)NC(=O)[C@H](Cc2c[nH]c3ccccc23)NC(=O)[C@H](CC(=O)O)NC(=O)[C@H](Cc2ccc(O)cc2)NC(=O)[C@H](Cc2cnc[nH]2)NC(=O)CSC[C@@H](C(=O)N[C@@H](C)C(N)=O)NC(=O)[C@H]([C@@H](C)O)NC(=O)[C@H](C(C)C)NC1=O` [Example 1321] ({CH2CO}-HYDWV[Bip]R[NMeA][NMeF][Dab]LVTCA-NH2; thioether N-14) was tested, and the IC50 was 110 nM. `CC(C)C[C@@H]1NC(=O)[C@H](CCCNC(=N)N)NC(=O)[C@H](Cc2ccccc2)N(C)C(=O)[C@H](C)N(C)C(=O)[C@H](CCCNC(=N)N)NC(=O)[C@H](Cc2ccc(-c3ccccc3)cc2)NC(=O)[C@H](C(C)C)NC(=O)[C@H](Cc2c[nH]c3ccccc23)NC(=O)[C@H](CC(=O)O)NC(=O)[C@H](Cc2ccc(O)cc2)NC(=O)[C@H](Cc2cnc[nH]2)NC(=O)CSC[C@@H](C(=O)N[C@@H](C)C(N)=O)NC(=O)[C@H]([C@@H](C)O)NC(=O)[C@H](C(C)C)NC1=O` [Example 1324] ({CH2CO}-HYDWV[Bip]R[NMeA][NMeF]RLVTCA-NH2; thioether N-14) gave an IC50 of 270 nM. Work on `CC(C)C[C@@H]1NC(=O)[C@H](CC(N)=O)NC(=O)CN(C)C(=O)[C@H](C)N(C)C(=O)[C@H](C(C)C)NC(=O)[C@H](Cc2ccc(-c3ccccc3)cc2)NC(=O)[C@H](CC2CCCCC2)NC(=O)[C@H](Cc2c[nH]c3ccccc23)NC(=O)[C@H](CC(=O)O)NC(=O)[C@H](Cc2ccc(O)cc2)NC(=O)[C@H](Cc2ccccc2)NC(=O)CSC[C@@H](C(=O)NCC(N)=O)NC(=O)[C@H](CO)NC(=O)[C@H](C(C)C)NC1=O` [Example 1145] ({CH2CO}-FYDW[Cha][Bip]V[NMeA][Sar]NLVSCG-NH2; thioether N-14) yielded an IC50 of 640 nM. Work on `CC(C)C[C@@H]1NC(=O)[C@H](CC(N)=O)NC(=O)CN(C)C(=O)[C@H](C)N(C)C(=O)[C@H](C(C)C)NC(=O)[C@H](Cc2ccc(-c3ccccc3)cc2)NC(=O)[C@H](CC2CCCC2)NC(=O)[C@H](Cc2c[nH]c3ccccc23)NC(=O)[C@H](CC(=O)O)NC(=O)[C@H](Cc2ccc(O)cc2)NC(=O)[C@H](Cc2ccccc2)NC(=O)CSC[C@@H](C(=O)N[C@@H](C)C(N)=O)NC(=O)[C@H](CO)NC(=O)[C@H](C(C)C)NC1=O` [Example 1147] ({CH2CO}-FYDW[Ala(cPent)][Bip]V[NMeA][Sar]NLVSCA-NH2; thioether N-14) yielded an IC50 of 660 nM. In the case of `COc1cccc(C[C@@H]2NC(=O)[C@H](CC(=O)O)NC(=O)[C@H](Cc3ccc(C(=O)O)cc3)NC(=O)[C@H](Cc3ccncc3)NC(=O)CSC[C@@H](C(=O)N[C@@H](C)C(N)=O)NC(=O)[C@H](CO)NC(=O)[C@H](C(C)C)NC(=O)[C@H](CC(C)C)NC(=O)[C@H](CC(N)=O)NC(=O)[C@H]3CCCN3C(=O)[C@H](C)N(C)C(=O)[C@H](C(C)C)NC(=O)[C@H](Cc3ccc(-c4ccccc4)cc3)NC(=O)[C@H](CC(C)C)NC2=O)c1` [Example 1387] ({CH2CO}-[4Pal][Phe(4-COOH)]D[Phe(3-OMe)]L[Bip]V[NMeA][dP]NLVSCA-NH2; thioether N-14), the IC50 is reported as 10 nM. In the case of `CC(C)C[C@@H]1NC(=O)[C@H](Cc2c[nH]c3ccccc23)NC(=O)[C@H](CC(=O)O)NC(=O)[C@H](Cc2cccc(F)c2)NC(=O)[C@H](Cc2ccccc2)NC(=O)CSC[C@@H](C(=O)N[C@@H](C)C(N)=O)NC(=O)[C@H](CO)NC(=O)[C@H](C(C)C)NC(=O)[C@H](CC(C)C)NC(=O)[C@H](CC(N)=O)NC(=O)[C@H]2CCCN2C(=O)[C@H](C)N(C)C(=O)[C@H](C(C)C)NC(=O)[C@H](Cc2ccc(-c3ccccc3)cc2)NC1=O` [Example 1047] ({CH2CO}-F[Phe(3-F)]DWL[Bip]V[NMeA][dP]NLVSCA-NH2; thioether N-14), the IC50 is reported as 90 nM. With `CC(C)C[C@@H]1NC(=O)[C@H](CC(N)=O)NC(=O)[C@H](Cc2ccccc2)N(C)C(=O)[C@H](C)N(C)C(=O)[C@H](CCCNC(=N)N)NC(=O)[C@H](Cc2ccc(-c3ccccc3)cc2)NC(=O)[C@H](C(C)C)NC(=O)[C@H](Cc2c[nH]c3ccccc23)NC(=O)[C@H](CC(=O)O)NC(=O)[C@H](Cc2ccc(O)cc2)NC(=O)[C@H](Cc2ccccc2)NC(=O)CSC[C@@H](C(=O)NCC(N)=O)NC(=O)[C@H](CO)NC(=O)[C@H](C(C)C)NC1=O` [Example 1207] ({CH2CO}-FYDWV[Bip]R[NMeA][NMeF]NLVSCG-NH2; thioether N-14) the IC50 was 320 nM. `CC(C)C[C@@H]1NC(=O)[C@H](CCN)NC(=O)[C@H](Cc2ccccc2)N(C)C(=O)[C@H](C)N(C)C(=O)[C@H](CCCNC(=N)N)NC(=O)[C@H](Cc2ccc(-c3ccccc3)cc2)NC(=O)[C@H](C(C)C)NC(=O)[C@H](Cc2c[nH]c3ccccc23)NC(=O)[C@H](CC(=O)O)NC(=O)[C@H](Cc2ccc(O)cc2)NC(=O)[C@H](Cc2cnc[nH]2)NC(=O)CSC[C@@H](C(=O)N[C@@H](C)C(N)=O)NC(=O)[C@H](CO)NC(=O)[C@H](C(C)C)NC1=O` [Example 1316] ({CH2CO}-HYDWV[Bip]R[NMeA][NMeF][Dab]LVSCA-NH2; thioether N-14) gave an IC50 of 80 nM. `CC(C)C[C@@H]1NC(=O)[C@H](CCCCN)NC(=O)[C@H](Cc2ccccc2)N(C)C(=O)[C@H](C)N(C)C(=O)[C@H](CCCNC(=N)N)NC(=O)[C@H](Cc2ccc(-c3ccccc3)cc2)NC(=O)[C@H](C(C)C)NC(=O)[C@H](Cc2c[nH]c3ccccc23)NC(=O)[C@H](CC(=O)O)NC(=O)[C@H](Cc2ccc(O)cc2)NC(=O)[C@H](CC(N)=O)NC(=O)CSC[C@@H](C(=O)N[C@@H](C)C(N)=O)NC(=O)[C@H]([C@@H](C)O)NC(=O)[C@H](C(C)C)NC1=O` [Example 1384] ({CH2CO}-NYDWV[Bip]R[NMeA][NMeF]KLVTCA-NH2; thioether N-14) showed an IC50 of 220 nM. In the case of `CC(C)C[C@@H]1NC(=O)[C@H](Cc2cccc3[nH]ccc23)NC(=O)[C@H](CC(=O)O)NC(=O)[C@H](Cc2ccc(O)cc2)NC(=O)[C@H](Cc2ccccc2)NC(=O)CSC[C@@H](C(=O)N[C@@H](C)C(N)=O)NC(=O)[C@H](CO)NC(=O)[C@H](C(C)C)NC(=O)[C@H](CC(C)C)NC(=O)[C@H](CC(N)=O)NC(=O)CN(C)C(=O)[C@H](C)N(C)C(=O)[C@H](C(C)C)NC(=O)[C@H](Cc2ccc(-c3ccccc3)cc2)NC1=O` [Example 1124] ({CH2CO}-FYD[Ala(indol-4-yl)]L[Bip]V[NMeA][Sar]NLVSCA-NH2; thioether N-14), the IC50 is reported as 450 nM.
